Results published in patent publication US11180657B2, “Polysulfonated fluorescence dyes” (ATTO-TEC GmbH, priority 2017, dated 2021).
Marks after values point to notes of the source that are not given here.

Experiments:
[1] = Absorption maximum of the dye; format: physicochemical
Text: (§1) Examples of the compounds according to the invention are listed in Tables 2-6, where the structures as well as the absorption and fluorescence maxima are indicated. The spectra of selected compounds are shown FIGS. 5-18.

[2] = Fluorescence maximum of the dye; format: physicochemical
Text: as §1

| λabs ([1]; solvent ethanol) | λfl ([2]; solvent ethanol) | SMILES | λabs ([1]; solvent PBS pH 7.4) | λfl ([2]; solvent PBS pH 7.4) |
| --- | --- | --- | --- | --- |
|  |  | Cn1cc[n+](CCCCS(=O)(=O)O)c1C1=c2cc3c(cc2C(C)(C)c2cc4c(cc21)C(CS(=O)(=O)O)=CC(C)(C)N4Cc1ccc(S(=O)(=O)O)cc1S(=O)(=O)O)=[N+](CCCC(=O)O)C(C)(C)C=C3CS(=O)(=O)O [Compound 60] | 742^b nm | 775^b nm |
|  |  | CC[N+]1=c2cc3c(cc2C(CS(=O)(=O)O)=CC1(C)C)=C(c1n(C)cc[n+]1CCCCC(=O)O)c1cc2c(cc1C3(C)C)N(Cc1ccc(S(=O)(=O)O)cc1S(=O)(=O)O)C(C)(C)C=C2CS(=O)(=O)O [Compound 61] | 743^b nm | 776^b nm |
|  |  | Cn1cc[n+](CCCC(=O)O)c1C1=c2cc3c(cc2[Si](C)(C)c2cc4c(cc21)C(CS(=O)(=O)O)=CC(C)(C)N4Cc1ccc(S(=O)(=O)O)cc1S(=O)(=O)O)=[N+](Cc1ccc(S(=O)(=O)O)cc1S(=O)(=O)O)C(C)(C)C=C3CS(=O)(=O)O [Compound 62] | 791^b nm | 817^b nm |
|  |  | Cn1cc[n+](CCCC(=O)O)c1C1=c2cc3c(cc2[Si](C)(C)c2cc4c(cc21)C(CS(=O)(=O)O)CC(C)(C)N4Cc1ccc(S(=O)(=O)O)cc1S(=O)(=O)O)=[N+](Cc1ccc(S(=O)(=O)O)cc1S(=O)(=O)O)C(C)(C)CC3CS(=O)(=O)O (stereo not shown) [Compound 63] | 752^b nm | 776^b nm |
|  |  | CC[N+]1=c2cc3c(cc2C(CS(=O)(=O)O)=CC1(C)C)=C(c1ccc(C(=O)O)cc1)c1cc2c(cc1C3(C)C)N(Cc1ccc(S(=O)(=O)O)cc1S(=O)(=O)O)C(C)(C)C=C2CS(=O)(=O)O [Compound 64] | 667^b nm | 697^b nm |
|  |  | CCN1c2cc3c(cc2C(CS(=O)(=O)O)=CC1(C)C)C(c1ccccc1C(=O)N(C)CCCC(=O)O)=c1cc2c(cc1C3(C)C)=[N+](Cc1ccc(S(=O)(=O)O)cc1S(=O)(=O)O)C(C)(C)C=C2CS(=O)(=O)O [Compound 65] | 679^b nm | 706^b nm |
|  |  | CCN1c2cc3c(cc2C(CS(=O)(=O)O)CC1(C)C)C(c1ccccc1C(=O)N(C)CCCC(=O)O)=c1cc2c(cc1C3(C)C)=[N+](Cc1ccc(S(=O)(=O)O)cc1S(=O)(=O)O)C(C)(C)CC2CS(=O)(=O)O (stereo not shown) [Compound 66] | 645^b nm | 665^b nm |
|  |  | CN(CCCC(=O)O)C(=O)c1ccccc1C1=c2cc3c(cc2C(C)(C)c2cc4c(cc21)C(CS(=O)(=O)O)=CC(C)(C)N4Cc1ccc(S(=O)(=O)O)cc1S(=O)(=O)O)=[N+](Cc1ccc(S(=O)(=O)O)cc1S(=O)(=O)O)C(C)(C)C=C3CS(=O)(=O)O [Compound 67] | 679^b nm | 707^b nm |
|  |  | CN(CCCC(=O)O)C(=O)c1ccccc1C1=c2cc3c(cc2C(C)(C)c2cc4c(cc21)C(CS(=O)(=O)O)CC(C)(C)N4Cc1ccc(S(=O)(=O)O)cc1S(=O)(=O)O)=[N+](Cc1ccc(S(=O)(=O)O)cc1S(=O)(=O)O)C(C)(C)CC3CS(=O)(=O)O (stereo not shown) [Compound 68] | 645^b nm | 666^b nm |
|  |  | CN(CCCC(=O)O)C(=O)c1ccccc1C1=C2C=C/C(=[N+](\C)Cc3ccc(S(=O)(=O)O)cc3S(=O)(=O)O)C=C2[Si](C)(C)c2cc(N(C)Cc3ccc(S(=O)(=O)O)cc3S(=O)(=O)O)ccc21 [Compound 69] | 658^b nm | 680^b nm |
|  |  | CN(Cc1ccc(S(=O)(=O)O)cc1S(=O)(=O)O)c1ccc2c(c1)[Si](C)(C)C1=C/C(=[N+](/C)Cc3ccc(S(=O)(=O)O)cc3S(=O)(=O)O)C=CC1=C2c1cc(C(=O)O)ccc1C(=O)O [Compound 70] | 649^b nm | 670^b nm |
|  |  | CN(CCCC(=O)O)C(=O)c1ccccc1C1=c2cc3c(cc2[Si](C)(C)c2cc4c(cc21)C(CS(=O)(=O)O)=CC(C)(C)N4Cc1ccc(S(=O)(=O)O)cc1S(=O)(=O)O)=[N+](Cc1ccc(S(=O)(=O)O)cc1S(=O)(=O)O)C(C)(C)C=C3CS(=O)(=O)O [Compound 71] | 722^b nm | 752^b nm |
|  |  | CC1(C)C=C(CS(=O)(=O)O)c2cc3c(cc2N1Cc1ccc(S(=O)(=O)O)cc1S(=O)(=O)O)[Si](C)(C)c1cc2c(cc1=C3c1cc(C(=O)O)ccc1C(=O)O)C(CS(=O)(=O)O)=CC(C)(C)[N+]=2Cc1ccc(S(=O)(=O)O)cc1S(=O)(=O)O [Compound 72] | 711^b nm | 740^b nm |
|  |  | CN(CCCC(=O)O)C(=O)c1ccccc1C1=c2cc3c(cc2[Si](C)(C)c2cc4c(cc21)C(CS(=O)(=O)O)CC(C)(C)N4Cc1ccc(S(=O)(=O)O)cc1S(=O)(=O)O)=[N+](Cc1ccc(S(=O)(=O)O)cc1S(=O)(=O)O)C(C)(C)CC3CS(=O)(=O)O (stereo not shown) [Compound 73] | 686^b nm | 708^b nm |
|  |  | CC1(C)CC(CS(=O)(=O)O)c2cc3c(cc2N1Cc1ccc(S(=O)(=O)O)cc1S(=O)(=O)O)[Si](C)(C)c1cc2c(cc1=C3c1cc(C(=O)O)ccc1C(=O)O)C(CS(=O)(=O)O)CC(C)(C)[N+]=2Cc1ccc(S(=O)(=O)O)cc1S(=O)(=O)O (stereo not shown) [Compound 74] | 675^b nm | 698^b nm |
| 597^a nm | 621^a nm | CN(C)c1ccc2c(c1)C(C)(C)c1cc3c(cc1=C2)CCC[N+]=3CS(=O)(=O)O [Compound 75] |  |  |
|  |  | CN(C)c1ccc2c(c1)C(C)(C)c1cc3c(cc1=C2)CCC[N+]=3Cc1ccc(S(=O)(=O)O)cc1S(=O)(=O)O [Compound 76] | 596^b nm | 622^b nm |
|  |  | CN(C)c1ccc2c(c1)C(C)(C)c1cc3c(cc1=C2C#N)CCC[N+]=3Cc1ccc(S(=O)(=O)O)cc1S(=O)(=O)O [Compound 77] | 730^b nm | 751^b nm |

| λabs ([1]; solvent ethanol) | λfl ([2]; solvent ethanol) | SMILES | λabs ([1]; solvent PBS pH 7.4) | λfl ([2]; solvent PBS pH 7.4) |
| --- | --- | --- | --- | --- |
| 468 nm |  | CN(C)c1ccc2c(c1)C(C)(C)c1cc3c(cc1=C2NCCCCCC(=O)O)CCC[N+]=3Cc1ccc(S(=O)(=O)O)cc1S(=O)(=O)O [Compound 78] | 463 nm | 609^b nm |
|  |  | CC1(C)c2c(cc3c4c2CCCN4CCC3)C=c2cc3c(cc21)=[N+](Cc1ccc(S(=O)(=O)O)cc1S(=O)(=O)O)CCC3 [Compound 79] | 627^b nm | 649^b nm |
|  |  | CC1(C)c2c(cc3c4c2CCCN4CCC3)C(C#N)=c2cc3c(cc21)=[N+](Cc1ccc(S(=O)(=O)O)cc1S(=O)(=O)O)CCC3 [Compound 80] | 739^b nm | 761^b nm |
|  |  | CC1(C)c2cc3c(cc2C(NCC(S(=O)(=O)O)S(=O)(=O)O)=c2cc4c(cc21)=[N+](Cc1ccc(S(=O)(=O)O)cc1S(=O)(=O)O)C(C)(C)C=C4CS(=O)(=O)O)CCCN3CCCC(=O)O [Compound 84] | 490^b nm | 644^b nm |
|  |  | C[N+](C)=C1C=CC2=C(NC(CCS(=O)(=O)O)C(=O)O)c3cc4c(cc3C(C)(C)C2=C1)N(Cc1ccc(S(=O)(=O)O)cc1S(=O)(=O)O)CCC4 (stereo not shown) [Compound 85] | 496^b nm | 673^b nm |
|  |  | CC1(C)c2cc3c(cc2C(NCC(S(=O)(=O)O)S(=O)(=O)O)=c2cc4c(cc21)=[N+](Cc1ccc(S(=O)(=O)O)cc1S(=O)(=O)O)C(C)(C)C=C4CS(=O)(=O)O)C(CS(=O)(=O)O)=CC(C)(C)N3CCCC(=O)O [Compound 86] | 502^b nm | 660^b nm |
|  |  | CCN(CS(=O)(=O)O)c1ccc2c(c1)[Si](C)(C)C1=C/C(=[N+](/CC)CS(=O)(=O)O)C=CC1=C2NCCS(=O)(=O)O [Compound 87] | 472^b nm | 605^b nm |
|  |  | CCN(CS(=O)(=O)O)c1ccc2c(c1)[Si](C)(C)C1=C/C(=[N+](/CC)CS(=O)(=O)O)C=CC1=C2NCC(S(=O)(=O)O)S(=O)(=O)O [Compound 88] | 471^b nm | 605^b nm |
|  |  | CN(Cc1ccc(S(=O)(=O)O)cc1S(=O)(=O)O)c1ccc2c(c1)[Si](C)(C)C1=C/C(=[N+](/C)Cc3ccc(S(=O)(=O)O)cc3S(=O)(=O)O)C=CC1=C2C#N [Compound 89] | 746^b nm | 763^b nm |
|  |  | CN(Cc1ccc(S(=O)(=O)O)cc1S(=O)(=O)O)c1ccc2c(c1)[Si](C)(C)C1=C/C(=[N+](/C)Cc3ccc(S(=O)(=O)O)cc3S(=O)(=O)O)C=CC1=C2NCCCC(=O)O [Compound 90] | 483^b nm | 637^b nm |
|  |  | CC1(C)C=C(CS(=O)(=O)O)c2cc3c(cc2N1CCCC(=O)O)[Si](C)(C)c1cc2c(cc1=C3)C(CS(=O)(=O)O)=CC(C)(C)[N+]=2CS(=O)(=O)O [Compound 91] | 715^b nm | 738^b nm |
|  |  | CC1(C)C=C(CS(=O)(=O)O)c2cc3c(cc2N1CCCC(=O)O)[Si](C)(C)c1cc2c(cc1=C3C#N)C(CS(=O)(=O)O)=CC(C)(C)[N+]=2CCS(=O)(=O)O [Compound 92] | 817^b nm | 841^b nm |
|  |  | CC1(C)C=C(CS(=O)(=O)O)c2cc3c(cc2N1CCCC(=O)O)[Si](C)(C)c1cc2c(cc1=C3NCC(S(=O)(=O)O)S(=O)(=O)O)C(CS(=O)(=O)O)=CC(C)(C)[N+]=2CCS(=O)(=O)O [Compound 93] | 516^b nm | 695^b nm |
|  |  | C[Si]1(C)c2cc3c(cc2C=c2cc4c(cc21)=[N+](Cc1ccc(S(=O)(=O)O)cc1S(=O)(=O)O)CCC4)CCCN3CCCC(=O)O [Compound 94] | 670^b nm | 693^b nm |
|  |  | C[Si]1(C)c2cc3c(cc2C(NCCCC(=O)O)=c2cc4c(cc21)=[N+](Cc1ccc(S(=O)(=O)O)cc1S(=O)(=O)O)CCC4)CCCN3Cc1ccc(S(=O)(=O)O)cc1S(=O)(=O)O [Compound 95] | 489^b nm | 661^b nm |
|  |  | CC1(C)C=C(CS(=O)(=O)O)c2cc3c(cc2N1CCS(=O)(=O)O)[Si](C)(C)c1cc2c(cc1=C3NC(CCS(=O)(=O)O)C(=O)O)C(CS(=O)(=O)O)=CC(C)(C)[N+]=2CCS(=O)(=O)O (stereo not shown) [Compound 96] | 518^b nm | 695^b nm |
|  |  | CC1(C)CC(CS(=O)(=O)O)c2cc3c(cc2=[N+]1CCCC(=O)O)Oc1cc(N(Cc2ccc(S(=O)(=O)O)cc2S(=O)(=O)O)Cc2ccc(S(=O)(=O)O)cc2S(=O)(=O)O)ccc1N=3 (stereo not shown) [Compound 97] | 649^b nm | 667^b nm |
|  |  | CC1(C)CC(CS(=O)(=O)O)c2cc3c(cc2=[N+]1CCCC(=O)O)Oc1cc2c(cc1N=3)CCCN2Cc1ccc(S(=O)(=O)O)cc1S(=O)(=O)O (stereo not shown) [Compound 98] | 664^b nm | 682^b nm |
